Data as given in ChEMBL document CHEMBL3861981 (J Med Chem, 2016).

Legend:
Hepatitis C virus = assay: Antiviral activity against HCV genotype 1b Con1 expressing NS3 protease infected in human Huh7.5 cells assessed as reduction in viral RNA replication by luciferase reporter gene assay; type: functional, cell-based, Hepacivirus hominis; details: genotype 1b Con1, Huh-7
[1] = Half life in human liver microsomes; type: ADME

Row | Structure (SMILES) | EC50 (Hepatitis C virus) [nM] | half-life [1] [h]
1 | COc1cnc(O[C@@H]2C[C@@H](C(=O)N[C@]3(C(=O)NS(=O)(=O)C4CC4)C[C@H]3C3CC3)N(C(=O)[C@@H](NC(=O)OC(C)C)C(C)(C)C)C2)c2cc(Cl)ccc12 | 66.7 | 0.583
2 | COc1cnc(O[C@@H]2C[C@@H](C(=O)N[C@]3(C(=O)NS(=O)(=O)C4CC4)C[C@H]3C(C)C)N(C(=O)[C@@H](NC(=O)OC(C)(C)C)C(C)(C)C)C2)c2cc(Cl)ccc12 | > 100 | 1.38
3 | COc1cnc(O[C@@H]2C[C@@H](C(=O)N[C@]3(C(=O)NS(=O)(=O)C4CC4)C[C@H]3C3CC3)N(C(=O)[C@@H](NC(=O)OC3CCC3)C(C)(C)C)C2)c2cc(Cl)ccc12 | 16.3 | 0.967
4 | COc1cnc(O[C@@H]2C[C@@H](C(=O)N[C@]3(C(=O)NS(=O)(=O)C4CC4)C[C@H]3C3CC3)N(C(=O)[C@@H](NC(=O)OCC(F)(F)F)C(C)(C)C)C2)c2cc(Cl)ccc12 | 48.6 | –
5 | COc1cnc(O[C@@H]2C[C@@H](C(=O)N[C@]3(C(=O)NS(=O)(=O)C4CC4)C[C@H]3C3CC3)N(C(=O)[C@@H](NC(=O)OC3CCCC3)C(C)(C)C)C2)c2cc(Cl)ccc12 | 19.8 | 0.65
6 | COc1cnc(O[C@@H]2C[C@@H](C(=O)N[C@]3(C(=O)NS(=O)(=O)C4CC4)C[C@H]3C3CC3)N(C(=O)[C@@H](NC(=O)O[C@H](C)C(F)(F)F)C3CC3)C2)c2cc(Cl)ccc12 | 13.3 | 3.33
7 | COc1cnc(O[C@@H]2C[C@@H](C(=O)N[C@]3(C(=O)NS(=O)(=O)C4CC4)C[C@H]3C3CC3)N(C(=O)[C@@H](NC(=O)O[C@@H](C)C(F)(F)F)C(C)(C)C)C2)c2cc(Cl)ccc12 | 146 | > 3.33
8 | C=C(C)[C@@H]1C[C@]1(NC(=O)[C@@H]1C[C@@H](Oc2ncc(OC)c3ccc(Cl)cc23)CN1C(=O)[C@@H](NC(=O)OC(C)(C)C)C(C)(C)C)C(=O)NS(=O)(=O)C1CC1 | 12.5 | 0.0833
9 | COc1cnc(O[C@@H]2C[C@@H](C(=O)N[C@]3(C(=O)NS(=O)(=O)C4CC4)C[C@H]3C3CC3)N(C(=O)[C@@H](NC(=O)OC(C)(C)C(F)F)C(C)(C)C)C2)c2cc(Cl)ccc12 | 58.2 | 2

These reach a lower EC50 (Hepatitis C virus). Values come first.

Row | EC50 (Hepatitis C virus) [nM] | half-life [1] [h] | Structure (SMILES)
10 | 8 | 2.58 | COc1cnc(O[C@@H]2C[C@@H](C(=O)N[C@]3(C(=O)NS(=O)(=O)C4CC4)C[C@H]3C3CC3)N(C(=O)[C@@H](NC(=O)O[C@H](C)C(F)(F)F)C(C)C)C2)c2cc(Cl)ccc12
11 | 8.6 | 1.85 | COc1cnc(O[C@@H]2C[C@@H](C(=O)N[C@]3(C(=O)NS(=O)(=O)C4CC4)C[C@H]3C3CC3)N(C(=O)[C@@H](NC(=O)O[C@H](C)C(F)(F)F)C3CCC3)C2)c2cc(Cl)ccc12
12 | 7.2 | 2 | CCC(CC)[C@H](NC(=O)O[C@H](C)C(F)(F)F)C(=O)N1C[C@H](Oc2ncc(OC)c3ccc(Cl)cc23)C[C@H]1C(=O)N[C@]1(C(=O)NS(=O)(=O)C2CC2)C[C@H]1C1CC1
13 | 3.7 | 0.4 | COc1cnc(O[C@@H]2C[C@@H](C(=O)N[C@]3(C(=O)NS(=O)(=O)C4CC4)C[C@H]3C3CC3)N(C(=O)[C@@H](NC(=O)OC3(C)CCCC3)C(C)(C)C)C2)c2cc(Cl)ccc12
14 | 6.3 | 1.63 | CC[C@@H](C)[C@H](NC(=O)O[C@H](C)C(F)(F)F)C(=O)N1C[C@H](Oc2ncc(OC)c3ccc(Cl)cc23)C[C@H]1C(=O)N[C@]1(C(=O)NS(=O)(=O)C2CC2)C[C@H]1C1CC1
